Assay results as given in BigSolDB 2.1.

O=C(O)CN(CC(=O)O)CP(=O)(O)O
solubility (mole fraction)
Details | 293.15 K | 298.15 K | 303.15 K | 308.15 K | 313.15 K | 318.15 K | 323.15 K | 328.15 K | 333.15 K | 343.15 K
in acetone | 0.000176 | 0.000227 | 0.000273 | 0.000352 | 0.000445 | 0.000543 | – | – | – | –
in ethanol | – | 3.2e-05 | 7.85e-05 | 0.000102 | 0.000139 | 0.000196 | 0.000359 | – | 0.000733 | 0.00176
in ethyl acetate | 0.000528 | 0.000627 | 0.000791 | 0.000906 | 0.00138 | 0.00153 | 0.00176 | – | 0.00263 | 0.00419
in isopropanol | – | 4.94e-05 | 8.19e-05 | 0.000128 | 0.000248 | 0.000344 | 0.000648 | 0.000898 | 0.00131 | 0.00286
in methanol | – | – | 6.27e-05 | 8.57e-05 | 0.000118 | 0.000168 | 0.000243 | 0.000407 | 0.000588 | –
in n-butanol | 0.000113 | 0.000148 | 0.000186 | 0.000246 | 0.000299 | 0.000387 | 0.000831 | – | 0.00159 | 0.00342
in n-hexanol | 0.000966 | 0.00107 | 0.00116 | 0.00137 | 0.00155 | 0.00197 | 0.00233 | – | 0.00337 | 0.00499
in n-pentanol | 0.000125 | 0.000149 | 0.000186 | 0.00023 | 0.000377 | 0.000583 | 0.00105 | – | 0.00195 | 0.00392
in toluene | 0.00035 | 0.000386 | 0.000427 | 0.000645 | 0.00084 | 0.000991 | 0.00157 | – | 0.00248 | 0.0039
